Test results as given in ChEMBL document CHEMBL1148150, “New cytotoxic furanosesterterpenes from an Okinawan marine sponge, Ircinia sp” (J Nat Prod, 2003).

System: KB
Test: Cytotoxicity against human KB cells
Assay type: functional, cell-based

## CC1=C(O)/C(=C/[C@@H](C)CCC/C(C)=C\C=C\[C@]2(C)CCCc3ccoc32)OC1=O
  IC50: ≥ 1 µg/mL

## C/C(=C/C=C/[C@]1(C)CCCc2ccoc21)CCC[C@H](C)CC(=O)[C@H](O)[C@H](C)Cl
  IC50: < 1 µg/mL

## CCC(O)C(=O)C[C@@H](C)CCC/C(C)=C\C=C\[C@]1(C)CCCc2ccoc21 (stereo not given in full)
  IC50: < 1 µg/mL

## CC1=C(O)/C(=C/[C@@H](C)CCC/C(C)=C/C=C/[C@]2(C)CCCc3ccoc32)OC1=O
  IC50: ≥ 1 µg/mL

## C/C(=C/C=C/[C@]1(C)CCCc2ccoc21)CCC[C@H](C)CC(=O)[C@@H](O)[C@H](C)Cl
  IC50: < 1 µg/mL
